Data: patent publication US9920295B2, “Bioreactor for isolation of rare cells and methods of use” (The Trustees of the University of Pennsylvania, priority 2012, dated 2018)
Like-named read-outs stand apart in the source and are kept apart here. Blank lines part the entries; values can stand above or below the compound they belong to.

What was measured:
[1] = system: CD34+ cells; details: data from Boitano et al. (2010), cited from earlier work; for EC50: fitted, read-out: CD34+ cell number EC50
[2] = system: CD34+-derived cells; assay: Apoptosis by cleaved caspase-3 intracellular flow cytometry and Annexin-V; format: cell-based, human; details: G-CSF 100 ng/ml; CH-223191 500 nM (4n fraction)
Experimental: (§1) Cells were fixed with 4% paraformaldehyde in PBS for 10 min, washed with PBS and resuspended in 0.1% saponin in HBSS (staining medium). The samples were then stained with antibodies against cytoplasmic antigens, including NMM-IIA (Sigma), NMM-IIB, phospho-NMM-IIA and caspase-3 (all from Cell Signaling Technology) for 30 min at room temperature. In some cases, cells were concurrently stained with PE anti-CD34 or anti-human CD38 for subpopulation analysis. Cells were then washed and stained with anti-rabbit or mouse secondary antibodies conjugated with Alexa 647 (Invitrogen) for 30 min, followed by analysis on FACSCalibur.

[3] = system: CD34+-derived cells (HSC, MPP, CPP); assay: AHR antagonist dose-response on HSC/P subpopulation number; format: cell-based, human
Experimental: Freshly purified bone marrow-derived human CD34^+ cells were obtained from either the Penn Xenograft Core Facility or AllCells (Emeryville, Calif.). Cells from at least 20 different donors were used in this study. Purity of the samples (>98%) was confirmed by flow cytometry with monoclonal antibody against human CD34. All experiments were performed in HSC expansion media (StemLine, Sigma) supplemented with 1× antibiotics, 20% BIT 9500 Serum Substitute (StemCell Technologies), 2 mM […] (Gibco) and the following human recombinant cytokines: SCF (100 ng/ml) and Tpo (100 ng/ml). In some occasions, the media was also supplemented by G-CSF (100 ng/ml), epidermal growth factor (EGF, 100 ng/ml), transforming growth factor beta 1 (TGF-beta1, 100 ng/ml), erythropoietin (EPO, 1 U/ml) and interleukin-3 (IL-3, 10 ng/ml). All cytokines were purchased from R&D Systems. After cells were cultured for 4 days, they were treated with different doses of cellular contractility inhibitors, including (±)-Blebbistatin (Bleb) (EMD Biosciences) and/or CH-223191 (Sigma) for indicated durations of up to 3 days. Cells were cultured at 37° C. in 5% CO2.
Surface marker analysis for HSC/Ps was done on either a LSR II flow cytometer or FACSCalibur (Becton Dickinson). […] Cells isolated from the bone marrow stained for 1 hr with APC anti-mouse CD47 (miap301, AbD Serotec), FITC anti-human CD47 (BD Biosciences), and PE anti-human CD11b, PE anti-human CD19 (both from BD Biosciences), or PE anti-human Glycophorin A (Invitrogen). Plts and RBCs were analyzed by staining with PE anti-mouse CD41 (eBioscience) and FITC anti-human CD41 (eBioscience) for 20 min, followed by analysis on FACSCalibur on log forward and side scatter scales.

[4] = system: BM CD34+-derived cells (CD41+ MK); assay: Ploidy analysis of CD34+-derived cells treated with contractility inhibitors (flow cytometry); format: cell-based, human; details: for EC50: read-out: MK polyploid cell number EC50
Experimental: (§2) Fresh purified bone marrow (BM)-derived humanCD34^+ cells were obtained from either the Penn Xenograft Core Facility or AllCells. Cells from at least 10 different donors were used in this study. Purity of the samples (>98%) was confirmed by flow cytometry with monoclonal antibody against human CD34 conjugated to phycoerythrin (PE). All experiments were performed in hematopoietic stem cell (HSC) expansion media (StemLine-II; Sigma) supplemented with 1× antibiotics, and the following human recombinant cytokines SCF (100 ng/mL) and Tpo (100 ng/mL). In some occasions, the media was also supplemented by G-CSF (100 ng/mL). All cytokines were purchased from R&D Systems. After cells were cultured for 4 days, they were treated with different doses of cellular contractility inhibitors, including (±)-blebbistatin (EMDBiosciences), reversine, ML-7, and Y-27632 (Sigma) for indicated durations of up to 3 days. Unfortunately, longer exposure to drug proves toxic even to polyploidy cells under the present culture conditions. Cells were then resuspended in PBS/2% FBS medium and subjected to ploidy analysis: cells were stained with CD41-FITC (BD Biosciences) at room temperature for 30 min, followed by Hoechst 33342 at 37° C. for 30 min. Then cells were stained with Annexin-V-PE (BD Biosciences) in the Annexin-V staining medium, followed by addition of 7-AAD. Stained cells were subjected to flow cytometric analysis (LSR-II; BD Biosciences): only viable cells (7-AAD^− and Hoechst 33342^+) were analyzed for ploidy. Cells with the DNA content of 8 N or higher were considered polyploid. To quantify absolute number of polyploid cells, viable cell number was counted before flow cytometry by Trypan blue exclusion, and this number was multiplied by percentages of each DNA compartment and subpopulations. Each multiplied number was then normalized by initial cell input number before drug treatment in culture.

[5] = target: T1, αIIbβ3 (Homo sapiens, UniProt P05106+P08514); assay: Platelet activation assay, PAC-1 binding; format: cell-based; details: 10 μM, thrombin 1 U/mL
T1 construct: endogenous in cells; host or cells: platelet-like fragments from megakaryocytes cultured from human bone-marrow CD34+ cells
Experimental: For platelet-activation assays, platelet-sided fraction isolated from either MK culture or NSG blood was resuspended in Tyrode's buffer supplemented with Mg^2+ and Ca^2+, and incubated with indicated agonists for 15 min at 37° C., followed by staining with FITC-conjugated anti-human P-selectin or PAC-1 antibody (BD Bioscience), APC-conjugated anti-human CD41, and in the case of xenograft samples, PE-conjugated anti-mouse CD41 for 15 min at room temperature, followed by fixation with 1.5% paraformaldehyde. Antibody-stained samples were then analyzed by flow cytometry. Platelet number was evaluated by mixing each sample with a defined number (˜10,000 beads per sample) of APC-conjugated beads (BD Bioscience). The number of platelets per sample was evaluated by: number of CD41^+ events/number of APC-bead events multiplied by total known number of APC-bead added per sample.

[6] = system: NMM-IIA pS1943; assay: pS1943 of NMM-IIA by phospho-specific flow cytometry; format: cell-based, human; details: under cytokine stimulation (SCF and Tpo)
Experimental: as §1

[7] = system: CD34+-derived MKs; assay: Polyploid MK numbers on collagen-coated gels of different elasticity; format: cell-based, human
Experimental: as §2, with “Cells were then resuspended in PBS/2% FBS medium and subjected to ploidy analysis: cells were stained with CD41-FITC (BD Biosciences) at room temperature for 30 min, followed by Hoechst 33342 at 37° C. for 30 min. Then cells were stained with Annexin-V-PE (BD Biosciences) in the Annexin-V staining medium, followed by addition of 7-AAD.” left out, “Cells with the DNA content of 8 N or higher were considered polyploid.” left out, “Each multiplied number was then normalized by initial cell input number before drug treatment in culture.” left out

[8] = Homo sapiens, dose-response, n≥3 donors

T1 sequence (P08514 32-887 limits assumed): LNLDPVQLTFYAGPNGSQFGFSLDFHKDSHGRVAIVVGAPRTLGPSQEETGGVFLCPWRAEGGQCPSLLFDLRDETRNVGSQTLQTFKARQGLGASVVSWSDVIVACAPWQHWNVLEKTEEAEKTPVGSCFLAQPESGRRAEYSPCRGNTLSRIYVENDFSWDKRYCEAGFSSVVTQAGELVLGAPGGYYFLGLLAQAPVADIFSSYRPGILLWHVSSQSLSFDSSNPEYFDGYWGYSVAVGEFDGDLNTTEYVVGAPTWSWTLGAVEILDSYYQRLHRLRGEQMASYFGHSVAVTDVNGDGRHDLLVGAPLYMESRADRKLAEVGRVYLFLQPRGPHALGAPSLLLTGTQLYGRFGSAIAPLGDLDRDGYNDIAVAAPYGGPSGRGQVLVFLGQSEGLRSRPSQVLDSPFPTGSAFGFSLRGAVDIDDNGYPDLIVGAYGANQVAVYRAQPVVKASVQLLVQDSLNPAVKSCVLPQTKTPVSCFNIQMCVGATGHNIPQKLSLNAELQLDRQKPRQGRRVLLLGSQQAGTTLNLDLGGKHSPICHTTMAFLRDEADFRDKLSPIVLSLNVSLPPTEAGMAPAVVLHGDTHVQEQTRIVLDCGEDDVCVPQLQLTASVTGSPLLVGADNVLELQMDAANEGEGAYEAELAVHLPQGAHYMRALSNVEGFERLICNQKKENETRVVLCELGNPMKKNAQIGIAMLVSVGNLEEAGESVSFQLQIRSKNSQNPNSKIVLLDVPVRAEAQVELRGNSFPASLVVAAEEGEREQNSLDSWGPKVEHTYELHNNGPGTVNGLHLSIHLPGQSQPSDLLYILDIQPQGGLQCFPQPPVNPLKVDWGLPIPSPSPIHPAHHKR
T1 sequence (P08514 891-1039 partner limits assumed): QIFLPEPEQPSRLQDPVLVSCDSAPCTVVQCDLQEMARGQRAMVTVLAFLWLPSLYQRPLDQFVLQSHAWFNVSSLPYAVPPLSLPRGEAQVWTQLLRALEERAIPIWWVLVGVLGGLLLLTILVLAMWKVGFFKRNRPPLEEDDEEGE
T1 sequence (P05106 27-788): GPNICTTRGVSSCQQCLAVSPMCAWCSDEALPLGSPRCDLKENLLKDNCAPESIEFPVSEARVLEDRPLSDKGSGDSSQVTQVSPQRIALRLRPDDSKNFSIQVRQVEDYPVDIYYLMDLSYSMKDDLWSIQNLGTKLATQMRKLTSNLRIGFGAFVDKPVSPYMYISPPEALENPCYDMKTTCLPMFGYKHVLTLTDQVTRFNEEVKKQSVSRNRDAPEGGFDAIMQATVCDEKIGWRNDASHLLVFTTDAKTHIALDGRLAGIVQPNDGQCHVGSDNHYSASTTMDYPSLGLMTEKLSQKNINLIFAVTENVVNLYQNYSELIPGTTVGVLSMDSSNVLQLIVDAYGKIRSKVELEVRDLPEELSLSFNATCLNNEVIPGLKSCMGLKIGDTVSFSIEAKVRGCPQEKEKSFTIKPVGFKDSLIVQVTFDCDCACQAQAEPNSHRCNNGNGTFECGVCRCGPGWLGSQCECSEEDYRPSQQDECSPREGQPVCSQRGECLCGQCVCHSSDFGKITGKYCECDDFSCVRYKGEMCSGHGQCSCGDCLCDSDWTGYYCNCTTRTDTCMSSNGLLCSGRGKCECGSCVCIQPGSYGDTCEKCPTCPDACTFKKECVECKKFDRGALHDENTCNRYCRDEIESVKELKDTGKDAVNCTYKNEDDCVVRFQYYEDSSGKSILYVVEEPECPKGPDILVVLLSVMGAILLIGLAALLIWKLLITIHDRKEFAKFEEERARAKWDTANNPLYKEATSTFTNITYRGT

EC50 ([3]; untreated and Bleb, for both, read-out: CPP number EC50): 750 nM
EC50 ([3]; untreated and Bleb, for both, read-out: MPP number EC50): 114 nM
EC50 ([3]; with 20 μM Bleb, 3 days, read-out: HSC number EC50): 211 nM
EC50 ([3]; without Bleb, 3 days, read-out: HSC number EC50): 158 nM
Compound: Cc1ccccc1N=Nc1ccc(NC(=O)c2ccnn2C)c(C)c1 [CH-223191]
EC50 [1]: 74 nM
viability of untreated CD34+ and CD34− cells [2]: improves the viability
HSC/P ratio ([3]; dual drug treatment with Bleb): almost doubled

IC50 ([4]; 2 N, read-out: MK cell number in 2 N IC50): 500 nM
IC50 ([4]; 4 N, read-out: MK cell number in 4 N IC50): 500 nM
IC50 ([4]; dose-response, n≥3 donors, read-out: MK polyploid cell number IC50): 1040 nM
Compound: O=S(=O)(c1cccc2c(I)cccc12)N1CCCNCC1 [ML7, ML-7]

The next lines start with the compound.

Compound: CC(C)n1cnc2c(NCCc3ccc(O)cc3)nc(-c3csc4ccccc34)nc21 [SR1]
EC50 [1]: 47.4 nM

Compound: CCCCS(=O)(=O)N[C@@H](Cc1ccc(OCCCCC2CCNCC2)cc1)C(=O)O [Tirofiban]
inhibition of agonist-induced PAC-1 binding [5]: inhibits as expected

Compound: C[C@@H](N)[C@H]1CC[C@H](C(=O)Nc2ccncc2)CC1 [Y-27632]
EC50 [4, 8]: 140 nM

Compound: O=c1cc(-c2ccccc2)oc2c1ccc1ccccc12 [a-napthoflavone, α-napthoflavone]
EC50 [1]: 177 nM
concentration showing toxic effect [1]: ≥ 1000 nM

Compound: c1nc2nc(Nc3ccc(N4CCOCC4)cc3)nc(NC3CCCCC3)c2[nH]1 [reversine]
EC50 [4, 8]: 500 nM
IC50 ([4]; Homo sapiens, read-out: MK cell number in 2 N IC50): 260 nM
IC50 ([4]; Homo sapiens, read-out: MK cell number in 4 N IC50): 500 nM

Compound: EGF: epidermal growth factor, human recombinant cytokine (NSDSECPLSHDGYCLHDGVCMYIEALDKYACNCVVGYIGERCQYRDLKWWELR; UniProt P01133 971-1023, looked up)
effect on pS1943 level [6]: does not show a significant effect

Compound: TGF-beta 1: transforming growth factor beta 1, human recombinant cytokine
effect on pS1943 level [6]: inhibits the reduction of pS1943 level

Compound: collagen
polyploid MK numbers on stiff gels, IC50 in collagen concentration ([7]; blebbistatin-treated cells): ~0.3 ng/cm^2
polyploid MK numbers on stiff gels, EC50 in collagen concentration ([7]; untreated cells): ~200 ng/cm^2
